Source: patent US9498546B2, “Synthesis and application of novel imaging agents conjugated to DPA 713 analogs for imaging inflammation” (THE JOHNS HOPKINS UNIVERSITY, priority 2012, dated 2016)
Entries after “also recorded” stand apart in the source; their conditions may differ.

Experiments:
[1] = tested on: CD68+ macrophages in PC-3 PIP and PC-3 flu xenografts; assay: Ex vivo fluorescence microscopy of PC-3 PIP and PC-3 flu xenografts; assay type: in vivo, mice
Description: FIG. 8 is a series of photomicrographs showing ex vivo fluorescence microscopy of DPA-713-IRDye680LT in PC-3 PIP and PC-3 flu xenografts at 24 hours post-injection. […] A & B. PIP tumor DPA-713-IRDye680LT only; C.
(§1) Ex vivo DPA-713-IRDye680LT microscopy. The mice used in the in vivo NIRF studies (PC-3 analog xenografts and MDA-MB-231 analog xenografts) were sacrificed at the end of their studies and their tumors were collected and frozen on dry ice for cryosectioning to 20 microns on charged glass slides (VWR). The sections were then probed with both anti-TSPO Ab (Novus Biologicals NBP1-45769, 1:70) labeled directly with Lissamine sulfonyl chloride (Aldrich) according to the known method and anti-CD68 Ab (Abcam ab53444, 1:40) and lastly with Hoechst 33342 (Invitrogen, 1 ng/mL). Both antibodies were added simultaneously in a 10% FBS in PBS solution applied directly to the freshly thawed sections and allowed to sit at room temperature for 1 hour. The sections were washed twice at room temperature for 5 minutes each with PBS prior to the addition of sheep-anti-rat-FITC (Abcam ab6848-1, 1:250) in PBS at room temperature for 30 minutes. The secondary antibody solution was removed and the slides were bathed in Hoechst solution (PBS) for 1.5 minutes at room temperature before being washed twice as before with PBS. The slides were then mounted in Dako Cytomation aqueous mounting media with a glass coverslip and viewed 30 minutes later using a Nikon 80i upright epifluorescence microscope equipped with a Nikon DS-QilMc darkfield CCD camera and excited by a Nikon Intensilight C-HGFI lamp. All images are recorded and processed using Nikon Imaging Software Elements.
FIG. 9 depicts a series of NIRF image showing in vivo, ex vivo and in vitro binding of DPA-713-IRDye800CW to androgen sensitive (TSPO−) LNCaP (9E), androgen insensitive (TSPO+) PC-3 prostate xenografts and TSPO+ subcutaneous and orthotopic U87 GBM xenografts.

[2] = tested on: LPS-stimulated J774 macrophages (TSPO); assay: In vitro J774 murine macrophage uptake studies (fluorescence microscopy, with or without blocking); assay type: cell-based
Description: FIG. 4 is a series of photomicrographs (A-I) of J774 macrophages that were cultured in 8 well chamber slides to 80% confluence. LPS was then added to each well for 24 hours to stimulate the cells. […] The cells were returned to the incubator for either 1 hour or 24 hours. The solutions were then removed, the nuclei were labeled with Hoechst 33342 and the cells were briefly washed before mounting and viewing under a fluorescence microscope.
In vitro J774 murine macrophage uptake studies. The immortalized J774 murine macrophage-like cell line was cultured in RPMI1640+20% FBS+1% penicillin+ streptomycin media in 8-well chamber slides (Fisher Scientific) to approximately 80% confluence. The cells were then stimulated with 1 ng/mL of LPS (Sigma, E. coli 055:B5) for 24 hours prior to addition of the probes of the present invention to 40 nM final concentration. […] The cells were exposed to the fluorescent probes and blocking compounds for either 1 hour or 24 hours prior to exposing to 1 ng/mL of Hoechst 33342 dye (Invitrogen), followed by washing twice briefly with PBS, pH 7.5. The chambers were then removed and the slide mounted with Dako Cytomation aqueous mounting media and a glass coverslip. The cells were visualized using a Nikon 80i upright epifluorescence microscope equipped with a Nikon DS-QilMc darkfield CCD camera and processed using Nikon Image Software on an adjacent workstation. The dyes were excited using either a Nikon Intensilight C-HGFI lamp (IRDye680 and Hoechst) or a Sutter Instruments Co. (Novato, Calif.) LB/LB-30 xenon lamp (IRDye800).
J774 Cell Uptake Studies. J774 macrophages were cultured in 8 well chamber slides to 80% confluence. LPS was then added to each well for 24 hours to stimulate the cells. […] The cells were returned to the incubator for either 1 hour or 24 hours. The solutions were then removed, the nuclei were labeled with Hoechst 33342 and the cells were briefly washed before mounting and viewing under a fluorescence microscope. […] The tracer localization for both analogs is perinuclear and granular in appearance and is consistent with the gross distribution pattern of TSPO expression in other mononuclear cell-derived lines.

[3] = tested on: CD68+ macrophages in MDA-MB-231 xenografts; assay: Ex vivo fluorescence microscopy of MDA-MB-231 xenografts; assay type: in vivo, mice; details: 24 hours post-injection
Description: FIG. 6 is a series of photomicrographs of ex vivo fluorescence microscopy of DPA-713-IRDye680LT in MDA-MB-231 xenografts at 24 hours post-injection.
as §1, with “The slides were then mounted in Dako Cytomation aqueous mounting media with a glass coverslip and viewed 30 minutes later using a Nikon 80i upright epifluorescence microscope equipped with a Nikon DS-QilMc darkfield CCD camera and excited by a Nikon Intensilight C-HGFI lamp.” left out, “Elements. […]” for “Elements.”

For `CCN(CC)C(=O)Cc1c(-c2ccc(OCCNC(=O)CCCCc3cccc(C(=C\C=C4/N(CCCS(=O)(=O)O)c5ccc6c(S(=O)(=O)O)cc(S(=O)(=O)O)cc6c5C4(C)C)/C=C/C4=[N+](CCCS(=O)(=O)[O-])c5ccc6c(S(=O)(=O)O)cc(S(=O)(=O)O)cc6c5C4(C)C)c3)cc2)nn2c(C)cc(C)nc12` [DPA-713-IRDye680LT, 3-(2-((1E,3Z,5Z)-3-(3-(5-(2-(4-(3-(2-(diethylamino)-2-oxoethyl)-5,7-dimethylpyrazolo[1,5-a]pyrimidin-2-yl)phenoxy)ethylamino)-5-oxopentyl)phenyl)-5-(1,1-dimethyl-6,8-disulfo-3-(3-sulfopropyl)-1Hbenzo[e]indol-2(3H)-ylidene)penta-1,3-dienyl)-1,1-dimethyl-6,8-disulfo-1H-benzo[e]indolium-3-yl)propane-1-sulfonate], the “Cell-specific accumulation of probe in prostate tumor xenografts” value ([1]; 24 hours of in vivo biodistribution) was “accumulated specifically within CD68+ macrophages”, the “Probe accumulation, PC-3 PIP compared with PC-3 flu xenografts” value ([1]; 24 hours post-injection) was “PC-3 PIPs accumulate more” and the “Blocking of probe accumulation by unlabeled DPA-713” value ([1]; co-injection with 20 mg/kg unlabeled DPA-713, 24 hours post-injection) was “accumulation is blocked”. The “Blocking of tracer uptake by (R,S)-PK11195” value ([2]; 40 nM tracer + 1 μM (R,S)-PK11195, 24 hours) was “no longer blocked”, the “Blocking of tracer uptake by (R,S)-PK11195” value ([2]; 40 nM tracer + 1 μM unlabeled (R,S)-PK11195, 1 hour) was “widespread although incomplete blocking” and the “Blocking of tracer uptake by unlabeled DPA-713” value ([2]; 40 nM tracer + 1 μM unlabeled DPA-713, 1 hour) was “partial but incomplete blocking”. The “Cell-specific localization of probe in xenograft sections” value [3] was “selectively retained by CD68-expressing macrophages; also recorded: sequestered within CD68+ macrophages”.
